{
  "source": "paper PMC7595966",
  "about": "“Scutellarin is Highly Likely to be Responsible for Drug-Drug Interactions Mediated by Hepatic Organic Anion-Transporting Polypeptide1B3” (Pharmaceutical Research, 2020)",
  "key": {"[1]": {"biological_target": "T1, hOATP1B3 (Homo sapiens, UniProt Q9NPD5)", "T1 construct": "gene SLCO1B3", "T1 sequence (Q9NPD5 1-702)": "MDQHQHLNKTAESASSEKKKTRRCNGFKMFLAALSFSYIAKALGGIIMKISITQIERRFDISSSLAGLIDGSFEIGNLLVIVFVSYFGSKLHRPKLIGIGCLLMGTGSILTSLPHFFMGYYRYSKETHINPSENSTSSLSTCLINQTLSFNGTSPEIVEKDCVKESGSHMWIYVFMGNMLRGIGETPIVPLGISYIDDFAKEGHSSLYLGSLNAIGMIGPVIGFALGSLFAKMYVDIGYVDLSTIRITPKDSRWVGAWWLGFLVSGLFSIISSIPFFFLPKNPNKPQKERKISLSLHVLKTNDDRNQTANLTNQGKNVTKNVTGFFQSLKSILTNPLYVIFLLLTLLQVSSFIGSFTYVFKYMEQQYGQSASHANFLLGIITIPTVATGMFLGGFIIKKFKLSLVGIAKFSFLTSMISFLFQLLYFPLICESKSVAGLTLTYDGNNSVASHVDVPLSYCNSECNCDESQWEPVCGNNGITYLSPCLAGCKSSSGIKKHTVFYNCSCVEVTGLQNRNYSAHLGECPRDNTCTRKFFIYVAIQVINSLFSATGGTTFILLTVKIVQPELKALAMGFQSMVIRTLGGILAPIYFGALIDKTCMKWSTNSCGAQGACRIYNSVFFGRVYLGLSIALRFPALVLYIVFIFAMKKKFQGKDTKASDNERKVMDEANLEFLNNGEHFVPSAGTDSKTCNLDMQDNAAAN", "test": "cell-based"}, "[2]": {"biological_target": "T2, rOATP1B2 (Rattus norvegicus, UniProt Q9QZX8)", "T2 construct": "gene Slco1b2", "T2 sequence (Q9QZX8 1-687)": "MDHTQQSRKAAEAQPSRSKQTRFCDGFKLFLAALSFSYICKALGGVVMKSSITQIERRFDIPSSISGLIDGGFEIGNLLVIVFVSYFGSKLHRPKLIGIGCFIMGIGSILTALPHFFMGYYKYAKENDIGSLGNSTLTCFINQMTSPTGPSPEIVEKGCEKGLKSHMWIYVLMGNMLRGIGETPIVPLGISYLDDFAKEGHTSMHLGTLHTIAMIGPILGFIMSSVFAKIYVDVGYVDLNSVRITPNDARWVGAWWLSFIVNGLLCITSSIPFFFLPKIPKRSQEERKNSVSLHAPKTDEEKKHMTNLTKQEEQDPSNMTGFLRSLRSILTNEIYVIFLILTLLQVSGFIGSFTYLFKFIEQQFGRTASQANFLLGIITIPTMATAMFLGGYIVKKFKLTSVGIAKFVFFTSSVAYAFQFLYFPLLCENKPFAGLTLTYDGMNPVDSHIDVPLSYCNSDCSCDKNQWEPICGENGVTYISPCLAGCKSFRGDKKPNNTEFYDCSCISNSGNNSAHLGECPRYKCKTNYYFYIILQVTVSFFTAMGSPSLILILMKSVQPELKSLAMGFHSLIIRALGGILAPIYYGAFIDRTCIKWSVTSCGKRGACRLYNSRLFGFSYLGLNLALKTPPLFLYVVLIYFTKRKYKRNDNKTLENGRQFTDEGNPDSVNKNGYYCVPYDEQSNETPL", "test": "cell-based"}},
  "data": [
    {"smiles": "O=C(O)[C@H]1O[C@@H](Oc2cc3oc(-c4ccc(O)cc4)cc(=O)c3c(O)c2O)[C@H](O)[C@@H](O)[C@@H]1O", "note": "[Scutellarin]", "values": [
      {"measurement": "IC50", "setting": "[1]", "value": "45.5 ± 6.67", "unit": "µM"},
      {"measurement": "IC50", "setting": "[2]", "value": "27.6 ± 3.97", "unit": "µM"}
    ]}
  ]
}
